Measured values: patent publication US7879858B2, “Substituted tetrahydropyrrolopyrazine compounds and the use thereof in pharmaceutical compositions” (Gruenenthal GmbH, priority 2006, dated 2011)

Columns and labels:
Serotonin reuptake = molecular target: T1, Serotonin reuptake (Rattus norvegicus, UniProt P31652); experiment: Inhibition of 5HT (serotonin) uptake in rat brain synaptosomes; format: biochemical; conditions: 10 μmol; synaptosomes from rat brain
T1 construct: synaptosomes are freshly isolated from areas of the rat brain; from tissue; host or cells: rat brain synaptosomes (P2 fraction)
Experimental: (§1) Biological Data Inhibition of NA and 5HT Uptake
(§2) In order to be able to carry out these in vitro studies, synaptosomes are freshly isolated from areas of the rat brain. In each case a so-called “P2” fraction prepared in accordance with the instructions of Gray and Whittaker (E. G. Gray and V. P. Whittaker (1962) J. Anat. 76, 79-88) is prepared. For the NA uptake, these vesicular particles are isolated from the hypothalamus of male rat brains. A detailed description of the method can be found in the literature (M. Ch. Frink, H.-H. Hennies, W. Englberger, M. Haurand and B. Wilffert (1996) Arzneim.-Forsch./Drug Res. 46 (III), 11, 1029-1036).

NA reuptake = experiment: Inhibition of NA (noradrenaline) uptake in rat hypothalamus synaptosomes; format: biochemical; conditions: synaptosomes from hypothalamus of male rat brains
Experimental: as §1, §2

T1 sequence (P31652 whole entry): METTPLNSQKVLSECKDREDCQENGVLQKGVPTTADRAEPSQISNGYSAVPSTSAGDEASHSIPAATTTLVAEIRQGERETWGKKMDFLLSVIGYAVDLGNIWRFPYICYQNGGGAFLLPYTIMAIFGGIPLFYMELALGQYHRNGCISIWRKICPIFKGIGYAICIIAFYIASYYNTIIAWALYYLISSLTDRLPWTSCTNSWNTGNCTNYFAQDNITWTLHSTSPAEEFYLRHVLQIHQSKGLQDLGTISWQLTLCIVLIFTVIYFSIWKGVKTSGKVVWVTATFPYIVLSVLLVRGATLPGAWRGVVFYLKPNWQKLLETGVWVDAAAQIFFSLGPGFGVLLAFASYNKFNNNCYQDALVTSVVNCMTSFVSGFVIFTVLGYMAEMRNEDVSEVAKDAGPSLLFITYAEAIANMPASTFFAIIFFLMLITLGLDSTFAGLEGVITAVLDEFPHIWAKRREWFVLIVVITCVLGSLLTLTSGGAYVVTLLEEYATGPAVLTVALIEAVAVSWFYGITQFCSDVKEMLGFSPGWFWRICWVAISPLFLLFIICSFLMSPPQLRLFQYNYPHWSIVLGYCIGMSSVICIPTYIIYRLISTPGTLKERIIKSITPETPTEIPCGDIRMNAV

| inhibition at 10 µM (Serotonin reuptake) | SMILES | NA reuptake % inhibition [10 μmol] (NA reuptake) |
| --- | --- | --- |
| 82% | COc1ccccc1C(=O)N1CCn2cccc2C1c1ccccc1OC (stereo not shown) [Example 4, (2-methoxy-phenyl)-[1-(2-methoxy-phenyl)-3,4-dihydro-1H-pyrrolo[1,2-a]pyrazin-2-yl]-methanone] | 13% |
| 30% | O=C(C1CCCC1)N1CCn2cccc2C1c1cccc(Cl)c1 (stereo not shown) [Example 42, (1-(3-chlorophenyl)-3,4-dihydropyrrolo[1,2-a]pyrazin-2(1H)-yl)(cyclopentyl)methanone] | 22% |
| 18% | O=C(c1ccccc1F)N1CCn2cccc2C1c1ccccc1F (stereo not shown) [Example 47, (2-fluorophenyl)(1-(2-fluorophenyl)-3,4-dihydropyrrolo[1,2-a]pyrazin-2(1H)-yl)methanone] | 12% |
| 42% | O=C(c1cccc(F)c1)N1CCn2cccc2C1c1ccccc1 (stereo not shown) [Example 23, (3-fluorophenyl)(1-phenyl-3,4-dihydropyrrolo[1,2-a]pyrazin-2(1H)-yl)methanone] | 41% |
| 53% | O=C(c1cccs1)N1CCn2cccc2C1c1cccc(Cl)c1 (stereo not shown) [Example 45, [1-(3-chloro-phenyl)-3,4-dihydro-1H-pyrrolo[1,2-a]pyrazin-2-yl]-thiophen-2-yl-methanone] | 43% |
| 27% | O=C(/C=C/c1ccc(F)cc1F)N1CCn2cccc2C1c1ccccc1 (stereo not shown) [Example 71, 3-(2,4-difluorophenyl)-1-(1-phenyl-3,4-dihydropyrrolo[1,2-a]pyrazin-2(1H)-yl)prop-2-en-1-one] | 17% |
| 56% | O=C(c1ccc2c(c1)OCO2)N1CCn2cccc2C1c1cccs1 (stereo not shown) [Example 56, benzo[1,3]dioxol-5-yl-(1-thiophen-2-yl-3,4-dihydro-1H-pyrrolo[1,2-a]pyrazin-2-yl)-methanone] | 35% |
| 54% | O=C(c1cccc(F)c1)N1CCn2cccc2C1c1ccccc1F (stereo not shown) [Example 7, (3-fluoro-phenyl)-[1-(2-fluoro-phenyl)-3,4-dihydro-1H-pyrrolo[1,2-a]pyrazin-2-yl]-methanone] | 36% |
| 34% | O=C(C1CC1)N1CCn2cccc2C1c1ccccc1F (stereo not shown) [Example 6, cyclopropyl(1-(2-fluorophenyl)-3,4-dihydropyrrolo[1,2-a]pyrazin-2(1H)-yl)methanone] | 13% |
| 51% | COc1cccc(C2c3cccn3CCN2C(=O)c2ccco2)c1 (stereo not shown) [Example 30, furan-2-yl(1-(3-methoxyphenyl)-3,4-dihydropyrrolo[1,2-a]pyrazin-2(1H)-yl)methanone] | 16% |
| 86% | COc1ccccc1C1c2cccn2CCN1C(=O)c1ccc2c(c1)OCO2 (stereo not shown) [Example 3, benzo[1,3]dioxol-5-yl-[1-(2-methoxy-phenyl)-3,4-dihydro-1H-pyrrolo[1,2-a]pyrazin-2-yl]-methanone] | 29% |
| 38% | O=C(c1ccc2c(c1)OCO2)N1CCn2cccc2C1c1cccc(Cl)c1 (stereo not shown) [Example 40, benzo[d][1,3]dioxol-5-yl(1-(3-chlorophenyl)-3,4-dihydropyrrolo[1,2-a]pyrazin-2(1H)-yl)methanone] | 41% |
| 37% | Cc1ccccc1C(=O)N1CCn2cccc2C1c1cccc(Cl)c1 (stereo not shown) [Example 41, (1-(3-chlorophenyl)-3,4-dihydropyrrolo[1,2-a]pyrazin-2(1H)-yl)(o-tolyl)methanone] | 35% |
| 66% | O=C(c1ccccc1F)N1CCn2cccc2C1c1ccc2c(c1)OCCO2 (stereo not shown) [Example 35, [1-(2,3-dihydro-benzo[1,4]dioxin-6-yl)-3,4-dihydro-1H-pyrrolo[1,2-a]pyrazin-2-yl]-(2-fluoro-phenyl)-methanone] | 43% |
| 27% | CN(C)c1ccc(C2c3cccn3CCN2C(=O)C2CC2)cc1 (stereo not shown) [Example 52, cyclopropyl(1-(4-(dimethylamino)phenyl)-3,4-dihydropyrrolo[1,2-a]pyrazin-2(1H)-yl)methanone] | 16% |
| 11% | O=C(c1ccco1)N1CCn2cccc2C1c1ccccc1 (stereo not shown) [Example 21, furan-2-yl(1-phenyl-3,4-dihydropyrrolo[1,2-a]pyrazin-2(1H)-yl)methanone] | 44% |
| 60% | O=C(c1cccc(F)c1)N1CCn2cccc2C1c1cccs1 (stereo not shown) [Example 58, (3-fluoro-phenyl)-(1-thiophen-2-yl-3,4-dihydro-1H-pyrrolo[1,2-a]pyrazin-2-yl)-methanone] | 54% |
| 29% | Cc1ccccc1C1c2cccn2CCN1C(=O)c1ccccc1F (stereo not shown) [Example 32, (2-fluorophenyl)(1-o-tolyl-3,4-dihydropyrrolo[1,2-a]pyrazin-2(1H)-yl)methanone] | 14% |
| 18% | O=C(c1cccs1)N1CCn2cccc2C1c1ccccc1 (stereo not shown) [Example 22, (1-phenyl-3,4-dihydropyrrolo[1,2-a]pyrazin-2(1H)-yl)(thiophen-2-yl)methanone] | 33% |
| 43% | CN(C)c1ccc(C2c3cccn3CCN2C(=O)c2ccccc2F)cc1 (stereo not shown) [Example 51, (1-(4-(dimethylamino)phenyl)-3,4-dihydropyrrolo[1,2-a]pyrazin-2(1H)-yl)(2-fluorophenyl)methanone] | 19% |
| 58% | O=C(c1ccc(F)cc1)N1CCn2cccc2C1c1ccc2c(c1)OCCO2 (stereo not shown) [Example 38, [1-(2,3-dihydro-benzo[1,4]dioxin-6-yl)-3,4-dihydro-1H-pyrrolo[1,2-a]pyrazin-2-yl]-(4-fluoro-phenyl)-methanone] | 48% |
| 35% | O=C(c1ccc(F)cc1)N1CCn2cccc2C1c1ccc(F)cc1F (stereo not shown) [Example 19, (1-(2,4-difluorophenyl)-3,4-dihydropyrrolo[1,2-a]pyrazin-2(1H)-yl)(4-fluorophenyl)methanone] | 28% |
| 38% | Cc1ccsc1C(=O)N1CCn2cccc2C1c1ccccc1 (stereo not shown) [Example 70, (3-methylthiophen-2-yl)(1-phenyl-3,4-dihydropyrrolo[1,2-a]pyrazin-2(1H)-yl)methanone] | 11% |
| 28% | COc1ccccc1C(=O)N1CCn2cccc2C1c1ccccc1 (stereo not shown) [Example 27, (2-methoxyphenyl)(1-phenyl-3,4-dihydropyrrolo[1,2-a]pyrazin-2(1H)-yl)methanone] | 15% |
| 51% | O=C(C1CCCC1)N1CCn2cccc2C1c1ccc(Cl)c(Cl)c1 (stereo not shown) [Example 62, cyclopentyl-[1-(3,4-dichloro-phenyl)-3,4-dihydro-1H-pyrrolo[1,2-a]pyrazin-2-yl]-methanone] | 29% |
| 65% | O=C(c1ccccc1F)N1CCn2cccc2C1c1ccc(Cl)c(Cl)c1 (stereo not shown) [Example 63, [1-(3,4-dichloro-phenyl)-3,4-dihydro-1H-pyrrolo[1,2-a]pyrazin-2-yl]-(2-fluoro-phenyl)-methanone] | 71% |
